Data from ChEMBL document CHEMBL1201862, “PubChem BioAssay data set” (2004).
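Compound exposure: 48 hours, 5 concentrations, 96-well plates. The concentration for 50% growth inhibition is given as GI50.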 Calls of active or inactive are those of the source. Rule as the data show it: active = GI50 up to about 1.1 µM and inactive = higher.

Assays:
Test in all cases: NCI anticancer screen, dose series, 48 h
[1] = test system: NCI/ADR-RES
[2] = test system: CAKI-1
[3] = test system: SK-OV-3
[4] = test system: Hs-578T
[5] = test system: SF-295
[6] = test system: HCT-116
[7] = test system: NCI-H460
[8] = test system: 786-0
[9] = test system: COLO 205
[10] = test system: MDA-MB-435
[11] = test system: M14
[12] = test system: ACHN
[13] = test system: SW-620
[14] = test system: SR
[15] = test system: DU-145
[16] = test system: HCC 2998
[17] = test system: OVCAR-3
[18] = test system: TK-10
[19] = test system: SK-MEL-2
[20] = test system: OVCAR-4
[21] = test system: K562
[22] = test system: A549
[23] = test system: T47D
[24] = test system: SNB-75
[25] = test system: MCF7
[26] = test system: UACC-62
[27] = test system: U-251
[28] = test system: HL-60
[29] = test system: HT-29
[30] = test system: KM12
[31] = test system: NCI-H23
[32] = test system: SN12C
[33] = test system: HCT-15
[34] = test system: IGROV-1
[35] = test system: HOP-62
[36] = test system: SK-MEL-28
[37] = test system: UO-31
[38] = test system: CCRF-CEM
[39] = test system: NCI-H522
[40] = test system: SF-539
[41] = test system: Malme-3M
[42] = test system: SK-MEL-5
[43] = test system: RPMI-8226
[44] = test system: RXF 393
[45] = test system: PC-3
[46] = test system: MDA-N
[47] = test system: MOLT-4
[48] = test system: OVCAR-8
[49] = test system: SF-268
[50] = test system: UACC-257
[51] = test system: EKVX
[52] = test system: MDA-MB-231
[53] = test system: NCI-H226

SMILES	GI50 [2]	GI50 [3]	GI50 [5]	GI50 [8]	GI50 [9]	GI50 [11]	GI50 [13]	GI50 [14]	GI50 [15]	GI50 [16]	GI50 [18]	GI50 [21]	GI50 [22]	GI50 [23]	GI50 [24]	GI50 [25]	GI50 [26]	GI50 [28]	GI50 [29]	GI50 [30]	other results
CC1(C)N=C(N)N=C(N)N1c1ccc(CCCCCCc2ccc(S(=O)(=O)F)cc2)cc1	12.3 µM (inactive)	8.53 µM (inactive)	0.114 µM (active)	< 0.01 µM (active)	0.144 µM (active)	1.24 µM (inactive)	< 0.0211 µM (active)	< 0.01 µM (active)	0.421 µM (active)	2.23 µM (inactive)	1.02 µM (active)	< 0.0105 µM (active)	< 0.0376 µM (active)	8 µM (inactive)	3.36 µM (inactive)	0.0828 µM (active)	< 0.01 µM (active)	0.132 µM (active)	< 0.0468 µM (active)	0.276 µM (active)	GI50 [1]: 22.9 µM (inactive); GI50 [4]: 2.18 µM (inactive); GI50 [6]: 0.017 µM (active); GI50 [7]: < 0.0229 µM (active); GI50 [10]: 0.0557 µM (active); GI50 [12]: 0.274 µM (active); GI50 [17]: 0.247 µM (active); GI50 [19]: 3.72 µM (inactive); GI50 [20]: 31.8 µM (inactive); GI50 [27]: < 0.0352 µM (active); GI50 [31]: 0.0617 µM (active); GI50 [32]: 0.028 µM (active); GI50 [33]: 0.857 µM; GI50 [34]: < 0.0395 µM (active); GI50 [35]: 1.19 µM (inactive); GI50 [36]: 3.88 µM (inactive); GI50 [37]: 14.1 µM (inactive); GI50 [38]: < 0.01 µM (active); GI50 [39]: 1.55 µM (inactive); GI50 [40]: < 0.0189 µM (active)
N#Cc1ccc(/N=C(/NCC(=O)O)Nc2cccc3ccccc23)cc1	> 10 µM (inactive)	> 10 µM (inactive)	> 10 µM (inactive)	> 10 µM (inactive)	> 10 µM (inactive)	> 10 µM (inactive)	> 10 µM (inactive)	> 10 µM (inactive)	> 10 µM (inactive)	> 10 µM (inactive)	> 10 µM (inactive)	> 10 µM (inactive)	> 10 µM (inactive)	> 10 µM (inactive)	> 10 µM (inactive)	> 10 µM (inactive)	> 10 µM (inactive)	> 10 µM (inactive)	> 10 µM (inactive)	> 10 µM (inactive)	GI50 [41]: > 10 µM (inactive); GI50 [42]: > 10 µM (inactive); GI50 [43]: > 10 µM (inactive); GI50 [44]: > 10 µM (inactive); GI50 [45]: > 10 µM (inactive); GI50 [46]: > 10 µM (inactive); GI50 [47]: > 10 µM (inactive); GI50 [48]: > 10 µM (inactive); GI50 [31]: > 10 µM (inactive); GI50 [32]: > 10 µM (inactive); GI50 [33]: > 10 µM; GI50 [34]: > 10 µM (inactive); GI50 [49]: > 10 µM (inactive); GI50 [50]: > 10 µM (inactive); GI50 [35]: > 10 µM (inactive); GI50 [36]: > 10 µM (inactive); GI50 [38]: > 10 µM (inactive); GI50 [51]: > 10 µM (inactive); GI50 [52]: > 10 µM (inactive)
CC(C)=CCC1=C(O)C(=O)c2ccccc2C1=O	–	–	–	–	–	–	–	–	–	> 100 µM (inactive)	–	–	–	–	–	–	–	–	–	–	GI50 [53]: > 100 µM (inactive); GI50 [51]: > 100 µM (inactive)
